The nature of data set [1]: Highest soluble concentration of DMPX in the injection vehicle. It is filed as physicochemical. Conditions: saline or isotonic; dissolved in warm saline; read-out: highest DMPX soluble concentration achieved. How it is done: (§1) EtOH dilution (10% v/v) for self-administration was made up using 95% ethyl alcohol and tap water. Sucrose (Saccharose, Fisher Scientific, Fair Lawn, N.J., USA) solution (10% w/v) was made up with tap water. All the compounds tested were obtained from Sigma Chemical Co. (St. Louis, Mo.). The A2A antagonist DMPX (3,7-Dimethyl-1-propargylxanthine) was dissolved in warm saline. The A1 antagonist DPCPX (8-Cyclopentyl-1,3-dipropylxanthine) was dissolved in 20:80 v/v mixture of Alkamuls EL-620 (Rhodia Inc., Cranbury, N.J., USA) and phosphate buffered saline. The D2 antagonist, eticlopride, was dissolved in saline. Drugs were administered in a 1 ml/kg volume except for the group tested with 5, 7 and 20 mg/kg DMPX, in which the injection volume was 2 ml/kg as the highest DMPX soluble concentration achieved was 10 mg/ml. Drugs were prepared fresh every treatment day.

A further data set has as its system Male Long Evans rats. The experiment in a line: Ethanol operant self-administration in rats (30 min FR3 session, 10% EtOH). Format: in vivo, rat. Here is the method: Separate groups of rats were given the D2 antagonist eticlopride (0.005, 0.007, 0.01 mg/kg), the A2A antagonist DMPX (1, 3, 5, 7, 10 and 20 mg/kg) and the Al antagonist DPCPX (0.125, 0.25, 0.5 mg/kg) by systemic injections.
Male Long Evans rats (Harlan, Indianapolis, Ind.) weighing approximately 250 g at the beginning of the studies, were individually housed with food and water available ad libitum except when stated otherwise. They were maintained on a 12 h light/dark cycle, lights on at 7:00 am. Operant training occurred between 8:30 am and 2:00 pm. The experimental procedures were approved in advance by our Institutional Animal Care and Use Committee.
as §1
EtOH operant self-administration was carried out in standard operant chambers (Med Associates, Georgia, Vt.) housed in sound-attenuated cubicles. Each chamber (33×30.5×33 cm) contained two retractable levers against the right wall, 7 cm from the floor and 1 cm from the right or left edge of the right wall, respectively. One recessed dish positioned at 2.5 cm above floor level and 6 cm from the levers towards the center of the chamber was the reinforcer receptacle. Fluid (0.1 ml) was delivered from syringe pumps upon activation of 1 of the 2 retractable response levers. A 3 sec tone was activated upon lever pressing. […] The beginning of a training session was signaled by the onset of the house light located in the center of the wall facing the levers, at 27.2 cm above the floor. A computer controlled stimulus and fluid delivery and recorded operant responses.
Before the beginning of EtOH operant self-administration, rats were exposed to a 10% EtOH (1OE) solution as the only liquid source in their home cages for 4 days. For the next 14 days, animals were allowed free choice between 10E in tap water or tap water from graded glass tubes. At the end of this 14-day period, operant self-administration was initiated according to the sucrose fading technique (Samson, 1986) with minor modifications. Rats were restricted to 30 minutes of water per day for 2 consecutive days. On the night of the second day of water restriction, rats were placed in the operant chambers for a 12-15 hrs overnight session on an FR1 schedule (1 reinforcement of 0.1 ml per lever press) with 10% sucrose (10S) as reinforcer and both levers active. The next day, rats began the operant self-administration training. Animals were kept on water restriction for the next 4-5 days during which they received one 45 min session per day on an FR1 schedule with 10S as reinforcer and one active lever. They were then given free water in their home cages for the remainder of the experiment and were trained for 2-3 more of the above described sessions. The next day, sessions were shortened to 30 minutes and the ratio of responding was increased to FR3. EtOH was added to the sweet solution (10S10E) and rats received 3-4 sessions of this solution, followed by at least 20 sessions with 10E only. A minimum average of 0.3 g/kg EtOH consumption in 8 sessions prior to the beginning of any drug treatment was required. […]

Where [2] appears, read: DMPX 1 mg/kg ip, vs saline, p<0.03.
The mark [3] stands for this setting: DMPX 10 mg/kg ip, vs saline, p<0.02.
[4] abbreviates: DMPX 20 mg/kg ip, vs saline, p<0.05.
Setting [5] is: DPCPX 0.125, 0.25, or 0.5 mg/kg ip, ANOVA NS.

≈ marks a conversion by molar mass, not a printed value. Entries after “also recorded” stand apart in the source; their conditions may differ.

With `C#CCn1c(=O)c2c(ncn2C)n(C)c1=O` [DMPX, 3,7-Dimethyl-1-propargylxanthine], the solubility in data set [1] came out at 10000 µg/mL (≈ 45.8 mM). The “number of lever presses” value in the data set on Male Long Evans rats (DMPX 1 mg/kg ip, vs saline, p<0.02) is “significantly increased”; in the data set on Male Long Evans rats (setting [3]), “significantly decreased”. In addition, the “g/kg of EtOH intake” value with Male Long Evans rats (setting [2]) is on record as “significantly increased”. In addition, the “number of EtOH reinforcements” value in the data set with Male Long Evans rats (setting [2]) is listed as “significantly increased”; with Male Long Evans rats (DMPX 10 mg/kg ip, vs saline, p<0.03), “significantly decreased”. Also, the “any of the measures (lever presses, EtOH reinforcements, g/kg EtOH)” value with Male Long Evans rats (DMPX 3 mg/kg ip, vs saline) is “did not significantly affect”; with Male Long Evans rats (DMPX 5 mg/kg ip, vs saline), “did not significantly affect”; in the data set with Male Long Evans rats (DMPX 7 mg/kg ip, vs saline), “did not significantly affect”. For the same compound, the “g/kg of EtOH consumption” value in the data set with Male Long Evans rats (setting [3]) is on record as “significantly decreased”. Also, in the data set on Male Long Evans rats (setting [4]), the “g/kg EtOH intake” value is recorded as “decreased”. Besides, the “number EtOH reinforcements” value in the data set on Male Long Evans rats (setting [4]) is given as “significant effect”. Also, the “EtOH self-administration, dose-effect function” value with Male Long Evans rats (DMPX 1-20 mg/kg ip) is reported as “bimodal effect”.

Turning to `CCc1cc(Cl)c(OC)c(C(=O)NC[C@@H]2CCCN2CC)c1O` [eticlopride], the “any of the analyzed measurements (lever presses, reinforcements, g/kg EtOH)” value with Male Long Evans rats (eticlopride 0.005 mg/kg sc, vs saline) is “did not significantly affect”. Further, the “number of lever presses” value in the data set with Male Long Evans rats (eticlopride 0.007 mg/kg sc, vs saline, decrease, p<0.005) is “significant effects”; in the data set on Male Long Evans rats (eticlopride 0.01 mg/kg sc, vs saline, decrease, p<0.0001) it was “significant effects”. In addition, the “g/kg of EtOH consumption” value in the data set with Male Long Evans rats (eticlopride 0.007 mg/kg sc, vs saline, decrease, p<0.01) is listed as “significant effects”; in the data set on Male Long Evans rats (eticlopride 0.01 mg/kg sc, vs saline, decrease, p<0.004), “significant effects”. Besides, the number of reinforcements result is “significant effects” with Male Long Evans rats (eticlopride 0.007 mg/kg sc, vs saline, decrease, p<0.02) and “significant effects” in the data set with Male Long Evans rats (eticlopride 0.01 mg/kg sc, vs saline, decrease, p<0.007). In addition, the “EtOH self-administration, effect across doses” value was “dose-dependently decreased” in the data set with Male Long Evans rats (eticlopride 0.005-0.01 mg/kg sc) and “dose-dependently reduced” in the data set on Male Long Evans rats (eticlopride 0.005-0.01 mg/kg sc, listed as Eticlopride).

For the compound `CCCn1c(=O)c2[nH]c(C3CCCC3)nc2n(CCC)c1=O` [DPCPX, 8-Cyclopentyl-1,3-dipropylxanthine], in the data set on Male Long Evans rats (setting [5]), the “g/kg of EtOH consumption” value is on record as “no effect”, the “number of EtOH reinforcements” value was “no effect” and the “number of lever presses” value is given as “no effect”. Also, in the data set on Male Long Evans rats (DPCPX 0.125-0.5 mg/kg ip), the “EtOH self-administration, effect across doses” value is on record as “without effect; also recorded: did not affect”.

These data come from patent US20060128708A1, “Antagonizing an adenosine A2A receptor to ameliorate one or more components of addictive behavior” (priority 2004, published 2006).
